Measured values as given in article PMC5540273, “Progress towards a public chemogenomic set for protein kinases and a call for contributions” (PLoS ONE, 2017).

Experiments:
Experiment in all cases: KINOMEscan competition binding
MAP3K1 = MAP3K1 (Homo sapiens, UniProt Q13233); settings: read-out: %Inh MAP3K1
CAMK4 = biological target: T1, CAMK4 (Homo sapiens, UniProt Q16566); settings: read-out: %Inh CAMK4
T1 sequence (Q16566 1-473): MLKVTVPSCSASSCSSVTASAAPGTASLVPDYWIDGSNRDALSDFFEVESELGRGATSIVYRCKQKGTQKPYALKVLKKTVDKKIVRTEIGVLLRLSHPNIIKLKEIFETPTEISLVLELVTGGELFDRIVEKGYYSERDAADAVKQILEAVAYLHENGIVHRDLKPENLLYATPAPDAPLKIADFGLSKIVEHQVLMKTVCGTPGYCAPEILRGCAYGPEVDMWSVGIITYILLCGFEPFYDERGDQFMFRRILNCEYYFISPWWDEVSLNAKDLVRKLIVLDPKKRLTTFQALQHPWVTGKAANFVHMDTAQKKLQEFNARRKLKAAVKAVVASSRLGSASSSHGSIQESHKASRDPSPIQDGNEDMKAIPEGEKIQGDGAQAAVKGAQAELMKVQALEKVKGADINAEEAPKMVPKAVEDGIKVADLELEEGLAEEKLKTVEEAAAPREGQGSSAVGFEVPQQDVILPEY

DCAMKL1 = biological target: T2, DCAMKL1 (Homo sapiens, UniProt O15075); settings: read-out: %Inh DCAMKL1
T2 sequence (O15075 1-740): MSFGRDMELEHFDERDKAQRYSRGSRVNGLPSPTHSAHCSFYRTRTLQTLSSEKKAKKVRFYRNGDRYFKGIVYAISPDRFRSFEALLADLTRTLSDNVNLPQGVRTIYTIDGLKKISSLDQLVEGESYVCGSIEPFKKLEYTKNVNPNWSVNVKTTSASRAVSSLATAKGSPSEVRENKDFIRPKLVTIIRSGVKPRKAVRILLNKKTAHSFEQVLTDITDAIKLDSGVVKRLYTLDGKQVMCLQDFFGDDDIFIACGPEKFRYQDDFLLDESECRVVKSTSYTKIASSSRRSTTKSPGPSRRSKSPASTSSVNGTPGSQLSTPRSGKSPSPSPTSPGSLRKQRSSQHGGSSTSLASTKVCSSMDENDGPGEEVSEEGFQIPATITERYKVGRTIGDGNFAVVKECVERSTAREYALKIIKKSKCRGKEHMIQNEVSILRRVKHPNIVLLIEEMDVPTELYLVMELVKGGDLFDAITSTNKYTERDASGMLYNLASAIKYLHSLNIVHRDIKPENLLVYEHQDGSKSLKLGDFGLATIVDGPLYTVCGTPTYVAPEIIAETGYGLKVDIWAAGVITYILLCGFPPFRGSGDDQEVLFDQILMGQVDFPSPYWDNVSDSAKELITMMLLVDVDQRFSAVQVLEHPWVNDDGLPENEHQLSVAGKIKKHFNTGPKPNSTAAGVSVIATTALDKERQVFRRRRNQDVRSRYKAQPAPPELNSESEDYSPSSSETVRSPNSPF

FRK = FRK (Homo sapiens, UniProt P42685); settings: read-out: %Inh FRK
CDC2L5 = CDC2L5 (Homo sapiens, UniProt Q14004); settings: read-out: %Inh CDC2L5
Sequence of CDC2L5 (Q14004 whole entry): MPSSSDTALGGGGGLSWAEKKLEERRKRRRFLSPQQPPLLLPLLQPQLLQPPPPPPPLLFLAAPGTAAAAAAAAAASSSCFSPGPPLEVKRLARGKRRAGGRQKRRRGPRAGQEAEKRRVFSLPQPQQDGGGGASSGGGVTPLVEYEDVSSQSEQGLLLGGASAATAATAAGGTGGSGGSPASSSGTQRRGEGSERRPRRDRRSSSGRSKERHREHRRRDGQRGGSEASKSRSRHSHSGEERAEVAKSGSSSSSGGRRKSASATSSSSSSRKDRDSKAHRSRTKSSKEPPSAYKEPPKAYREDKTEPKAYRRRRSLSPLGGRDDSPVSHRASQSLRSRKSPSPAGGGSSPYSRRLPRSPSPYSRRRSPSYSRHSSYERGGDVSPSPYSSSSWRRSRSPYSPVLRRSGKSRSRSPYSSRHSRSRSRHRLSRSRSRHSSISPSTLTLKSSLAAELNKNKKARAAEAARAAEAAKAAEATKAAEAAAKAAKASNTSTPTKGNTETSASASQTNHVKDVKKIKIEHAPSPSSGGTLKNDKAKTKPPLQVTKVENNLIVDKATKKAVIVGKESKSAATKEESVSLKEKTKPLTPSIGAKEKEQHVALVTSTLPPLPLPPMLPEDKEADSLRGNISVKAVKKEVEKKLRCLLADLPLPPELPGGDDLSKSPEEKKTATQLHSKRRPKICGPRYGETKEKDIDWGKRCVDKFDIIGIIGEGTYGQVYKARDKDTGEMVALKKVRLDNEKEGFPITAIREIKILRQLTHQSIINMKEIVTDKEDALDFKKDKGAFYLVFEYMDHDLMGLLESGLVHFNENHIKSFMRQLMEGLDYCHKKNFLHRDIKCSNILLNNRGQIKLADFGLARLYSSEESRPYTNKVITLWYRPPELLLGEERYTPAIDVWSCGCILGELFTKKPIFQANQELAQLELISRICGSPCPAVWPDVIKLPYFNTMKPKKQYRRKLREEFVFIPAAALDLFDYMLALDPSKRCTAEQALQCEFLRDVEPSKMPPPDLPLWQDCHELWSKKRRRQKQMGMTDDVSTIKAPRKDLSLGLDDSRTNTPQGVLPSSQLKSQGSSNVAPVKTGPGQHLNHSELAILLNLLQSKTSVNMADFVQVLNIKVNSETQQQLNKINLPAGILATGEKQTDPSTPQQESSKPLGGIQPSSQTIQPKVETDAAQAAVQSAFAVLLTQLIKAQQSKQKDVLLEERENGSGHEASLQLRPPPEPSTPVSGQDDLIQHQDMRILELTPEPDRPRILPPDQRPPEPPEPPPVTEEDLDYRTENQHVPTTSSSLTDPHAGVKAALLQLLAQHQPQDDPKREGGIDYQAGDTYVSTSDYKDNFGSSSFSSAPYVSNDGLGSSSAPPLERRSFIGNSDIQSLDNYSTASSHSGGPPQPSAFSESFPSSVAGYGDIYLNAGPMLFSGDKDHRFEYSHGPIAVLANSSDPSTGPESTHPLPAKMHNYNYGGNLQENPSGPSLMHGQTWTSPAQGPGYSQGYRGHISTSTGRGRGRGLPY

IRAK3 = biological target: T3, IRAK3 (Homo sapiens, UniProt Q9Y616); settings: read-out: %Inh IRAK3
T3 sequence (Q9Y616 1-596): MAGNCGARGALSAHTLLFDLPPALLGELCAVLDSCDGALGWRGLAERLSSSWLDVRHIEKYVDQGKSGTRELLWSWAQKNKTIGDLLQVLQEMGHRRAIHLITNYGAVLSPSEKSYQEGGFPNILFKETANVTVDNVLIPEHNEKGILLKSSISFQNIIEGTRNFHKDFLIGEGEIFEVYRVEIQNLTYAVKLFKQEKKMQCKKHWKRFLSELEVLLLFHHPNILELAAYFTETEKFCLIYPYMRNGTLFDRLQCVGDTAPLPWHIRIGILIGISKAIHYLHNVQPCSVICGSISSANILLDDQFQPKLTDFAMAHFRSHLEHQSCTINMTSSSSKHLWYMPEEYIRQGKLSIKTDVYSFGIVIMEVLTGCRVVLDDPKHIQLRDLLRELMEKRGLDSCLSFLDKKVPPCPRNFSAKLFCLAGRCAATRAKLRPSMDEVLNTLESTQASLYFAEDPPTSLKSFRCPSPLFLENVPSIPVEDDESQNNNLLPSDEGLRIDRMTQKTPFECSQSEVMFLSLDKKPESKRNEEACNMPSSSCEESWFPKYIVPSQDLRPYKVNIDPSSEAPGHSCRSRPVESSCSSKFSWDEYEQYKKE

GRK7 = biological target: T4, GRK7 (Homo sapiens, UniProt Q8WTQ7); settings: read-out: %Inh GRK7
T4 sequence (Q8WTQ7 1-553): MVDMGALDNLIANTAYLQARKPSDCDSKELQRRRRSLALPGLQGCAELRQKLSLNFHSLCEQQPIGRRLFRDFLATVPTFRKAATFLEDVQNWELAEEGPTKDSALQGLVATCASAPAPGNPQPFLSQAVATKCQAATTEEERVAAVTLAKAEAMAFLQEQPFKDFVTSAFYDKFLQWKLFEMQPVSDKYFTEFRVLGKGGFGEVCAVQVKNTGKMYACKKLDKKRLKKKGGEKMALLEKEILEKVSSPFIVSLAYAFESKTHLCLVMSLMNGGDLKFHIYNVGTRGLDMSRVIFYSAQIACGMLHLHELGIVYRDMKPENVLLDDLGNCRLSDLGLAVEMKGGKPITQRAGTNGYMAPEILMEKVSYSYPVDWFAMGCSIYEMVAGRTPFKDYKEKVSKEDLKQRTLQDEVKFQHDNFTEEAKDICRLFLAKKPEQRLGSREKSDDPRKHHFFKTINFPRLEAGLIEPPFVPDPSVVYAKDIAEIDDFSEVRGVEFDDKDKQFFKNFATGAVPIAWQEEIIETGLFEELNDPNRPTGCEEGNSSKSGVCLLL

AKT3 = AKT3 (Homo sapiens, UniProt Q9Y243); settings: read-out: %Inh AKT3
Sequence of AKT3 (Q9Y243 whole entry): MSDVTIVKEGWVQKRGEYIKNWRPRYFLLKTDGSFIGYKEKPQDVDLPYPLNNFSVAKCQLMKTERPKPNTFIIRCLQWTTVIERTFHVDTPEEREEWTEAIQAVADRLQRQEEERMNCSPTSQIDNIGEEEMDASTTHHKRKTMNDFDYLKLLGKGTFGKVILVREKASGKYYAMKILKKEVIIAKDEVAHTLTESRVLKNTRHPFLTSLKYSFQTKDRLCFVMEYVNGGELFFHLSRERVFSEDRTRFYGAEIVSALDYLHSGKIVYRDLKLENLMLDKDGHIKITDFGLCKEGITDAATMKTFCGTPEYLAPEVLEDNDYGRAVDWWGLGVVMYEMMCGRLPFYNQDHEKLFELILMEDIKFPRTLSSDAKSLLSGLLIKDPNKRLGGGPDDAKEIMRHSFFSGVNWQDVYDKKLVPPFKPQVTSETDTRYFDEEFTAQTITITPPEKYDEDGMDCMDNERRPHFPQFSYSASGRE

INSRR = INSRR (Homo sapiens, UniProt P14616); settings: read-out: %Inh INSRR
Sequence of INSRR (P14616 27-1297): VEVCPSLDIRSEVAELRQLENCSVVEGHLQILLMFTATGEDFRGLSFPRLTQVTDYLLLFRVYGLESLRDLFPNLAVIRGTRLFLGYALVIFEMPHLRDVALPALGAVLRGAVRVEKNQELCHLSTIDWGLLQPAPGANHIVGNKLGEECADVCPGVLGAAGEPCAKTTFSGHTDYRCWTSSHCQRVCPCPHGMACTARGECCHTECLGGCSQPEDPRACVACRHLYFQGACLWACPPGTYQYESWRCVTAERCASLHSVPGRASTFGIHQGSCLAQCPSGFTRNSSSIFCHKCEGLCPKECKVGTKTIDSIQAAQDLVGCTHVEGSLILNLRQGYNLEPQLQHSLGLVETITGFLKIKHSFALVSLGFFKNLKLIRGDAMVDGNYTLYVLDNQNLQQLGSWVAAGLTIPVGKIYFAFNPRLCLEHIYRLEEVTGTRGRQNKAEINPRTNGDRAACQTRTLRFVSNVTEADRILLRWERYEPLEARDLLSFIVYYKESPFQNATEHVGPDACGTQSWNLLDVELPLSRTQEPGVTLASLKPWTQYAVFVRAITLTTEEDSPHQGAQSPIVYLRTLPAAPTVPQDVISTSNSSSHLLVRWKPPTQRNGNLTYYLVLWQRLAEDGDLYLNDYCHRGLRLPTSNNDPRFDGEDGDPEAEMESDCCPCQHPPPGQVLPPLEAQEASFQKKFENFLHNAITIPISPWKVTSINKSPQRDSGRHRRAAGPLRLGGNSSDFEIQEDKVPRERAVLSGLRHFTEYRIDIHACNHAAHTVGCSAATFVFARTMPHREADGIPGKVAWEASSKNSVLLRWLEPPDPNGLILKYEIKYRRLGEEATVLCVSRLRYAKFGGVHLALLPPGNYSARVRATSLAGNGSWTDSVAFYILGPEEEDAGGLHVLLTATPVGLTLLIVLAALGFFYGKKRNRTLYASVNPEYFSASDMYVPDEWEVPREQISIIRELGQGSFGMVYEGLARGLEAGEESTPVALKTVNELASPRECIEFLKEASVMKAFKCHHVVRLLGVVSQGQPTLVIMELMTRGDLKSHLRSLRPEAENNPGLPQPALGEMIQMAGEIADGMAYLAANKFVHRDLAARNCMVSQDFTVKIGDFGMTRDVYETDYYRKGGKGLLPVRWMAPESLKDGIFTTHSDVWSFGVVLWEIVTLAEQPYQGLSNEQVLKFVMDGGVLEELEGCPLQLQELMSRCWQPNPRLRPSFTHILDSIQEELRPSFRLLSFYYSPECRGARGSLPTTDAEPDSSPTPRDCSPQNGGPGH

Sequence of MAP3K1 (Q13233 whole entry): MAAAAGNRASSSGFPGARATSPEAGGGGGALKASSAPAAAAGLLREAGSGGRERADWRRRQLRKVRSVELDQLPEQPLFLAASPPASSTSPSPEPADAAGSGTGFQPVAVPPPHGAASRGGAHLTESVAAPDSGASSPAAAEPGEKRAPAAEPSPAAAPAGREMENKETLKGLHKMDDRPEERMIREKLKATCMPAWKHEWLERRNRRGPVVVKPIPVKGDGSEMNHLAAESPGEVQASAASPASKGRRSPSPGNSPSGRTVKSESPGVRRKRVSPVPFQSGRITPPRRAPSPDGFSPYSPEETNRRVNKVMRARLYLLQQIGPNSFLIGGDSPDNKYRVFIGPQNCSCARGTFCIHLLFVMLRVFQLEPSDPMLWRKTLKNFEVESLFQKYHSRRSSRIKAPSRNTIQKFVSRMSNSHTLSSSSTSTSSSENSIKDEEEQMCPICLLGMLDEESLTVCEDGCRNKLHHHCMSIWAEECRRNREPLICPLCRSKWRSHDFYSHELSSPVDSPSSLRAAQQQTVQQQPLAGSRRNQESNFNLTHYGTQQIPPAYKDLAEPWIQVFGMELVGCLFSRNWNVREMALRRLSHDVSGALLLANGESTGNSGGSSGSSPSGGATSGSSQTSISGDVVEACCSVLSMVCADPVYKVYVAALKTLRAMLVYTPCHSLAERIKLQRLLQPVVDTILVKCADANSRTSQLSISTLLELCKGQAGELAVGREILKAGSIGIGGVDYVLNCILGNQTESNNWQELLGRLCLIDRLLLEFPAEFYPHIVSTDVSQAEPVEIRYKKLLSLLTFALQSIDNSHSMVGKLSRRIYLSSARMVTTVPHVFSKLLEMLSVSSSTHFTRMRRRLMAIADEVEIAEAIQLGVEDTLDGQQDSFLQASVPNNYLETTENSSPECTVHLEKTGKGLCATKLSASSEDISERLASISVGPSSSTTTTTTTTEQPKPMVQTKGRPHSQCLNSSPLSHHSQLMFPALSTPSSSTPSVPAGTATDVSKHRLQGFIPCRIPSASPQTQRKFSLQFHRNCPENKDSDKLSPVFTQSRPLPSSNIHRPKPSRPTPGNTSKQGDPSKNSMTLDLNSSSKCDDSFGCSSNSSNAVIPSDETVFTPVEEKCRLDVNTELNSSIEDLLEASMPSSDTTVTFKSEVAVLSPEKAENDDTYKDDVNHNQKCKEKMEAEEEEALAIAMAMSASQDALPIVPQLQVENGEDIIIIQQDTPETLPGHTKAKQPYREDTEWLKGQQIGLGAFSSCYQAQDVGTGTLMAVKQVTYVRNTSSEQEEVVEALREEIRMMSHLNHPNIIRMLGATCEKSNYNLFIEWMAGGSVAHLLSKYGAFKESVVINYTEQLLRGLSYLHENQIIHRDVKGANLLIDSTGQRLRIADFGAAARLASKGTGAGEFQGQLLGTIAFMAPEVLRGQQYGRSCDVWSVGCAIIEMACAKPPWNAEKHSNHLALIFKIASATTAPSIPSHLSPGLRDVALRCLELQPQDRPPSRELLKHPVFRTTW

For `Cn1cc(-c2cnc(N)c3c(-c4ccc5c(c4)CCN5C(=O)Cc4ccccc4)csc23)cn1` [UNC10225012A], which inhibition at 1 µM (MAP3K1) is on record?
Its inhibition at 1 µM is 4%.

What about the inhibition at 1 µM (CAMK4) of the same compound?
The inhibition at 1 µM was 0%.

And the inhibition at 1 µM (DCAMKL1)?
The inhibition at 1 µM was 0%.

What about the inhibition at 1 µM (FRK) of the same compound?
The inhibition at 1 µM was 38%.

What about the inhibition at 1 µM (CDC2L5) of the same compound?
Its inhibition at 1 µM is 0%.

What about the inhibition at 1 µM (IRAK3) of the same compound?
Its inhibition at 1 µM is 5%.

What about the inhibition at 1 µM (GRK7) of the same compound?
The inhibition at 1 µM was 6%.

What about the inhibition at 1 µM (AKT3) of the same compound?
Its inhibition at 1 µM is 8%.

What about the inhibition at 1 µM (INSRR) of the same compound?
The inhibition at 1 µM was 13%.

With `CS(=O)(=O)Cc1ccc(Nc2nccc(-c3c(-c4cccc(NC(=O)C5CCCCC5)c4)nn4ncccc34)n2)cc1` [UNC10225159A] as the compound, how does the inhibition at 1 µM (MAP3K1) read?
Its inhibition at 1 µM is 30%.

What about the inhibition at 1 µM (CAMK4) of the same compound?
The inhibition at 1 µM was 0%.

What about the inhibition at 1 µM (DCAMKL1) of the same compound?
Its inhibition at 1 µM is 0%.

What about the inhibition at 1 µM (FRK) of the same compound?
The inhibition at 1 µM was 4%.

And the inhibition at 1 µM (CDC2L5)?
Its inhibition at 1 µM is 30%.

What about the inhibition at 1 µM (IRAK3) of the same compound?
The inhibition at 1 µM was 3%.

What about the inhibition at 1 µM (GRK7) of the same compound?
The inhibition at 1 µM was 5%.

What about the inhibition at 1 µM (AKT3) of the same compound?
The inhibition at 1 µM was 0%.

What about the inhibition at 1 µM (INSRR) of the same compound?
Its inhibition at 1 µM is 20%.

With `Cc1ccc(NC(=O)Nc2cccc(C(F)(F)F)c2)cc1` [UNC10225187A] as the compound, how does the inhibition at 1 µM (MAP3K1) read?
The inhibition at 1 µM was 0%.

And the inhibition at 1 µM (CAMK4)?
The inhibition at 1 µM was 5%.

What about the inhibition at 1 µM (DCAMKL1) of the same compound?
Its inhibition at 1 µM is 0%.

What about the inhibition at 1 µM (FRK) of the same compound?
The inhibition at 1 µM was 0%.

What about the inhibition at 1 µM (CDC2L5) of the same compound?
The inhibition at 1 µM was 0%.

What about the inhibition at 1 µM (IRAK3) of the same compound?
Its inhibition at 1 µM is 100%.

What about the inhibition at 1 µM (GRK7) of the same compound?
The inhibition at 1 µM was 10%.

And the inhibition at 1 µM (AKT3)?
The inhibition at 1 µM was 0%.

And the inhibition at 1 µM (INSRR)?
Its inhibition at 1 µM is 0%.

For `COc1cccc(OC)c1C(=O)Nc1cccc(-c2nn3ccccc3c2-c2ccnc(Nc3cccc(F)c3)n2)c1` [UNC10225310A], which inhibition at 1 µM (MAP3K1) is on record?
The inhibition at 1 µM was 0%.

What about the inhibition at 1 µM (CAMK4) of the same compound?
The inhibition at 1 µM was 0%.

And the inhibition at 1 µM (DCAMKL1)?
The inhibition at 1 µM was 16%.

And the inhibition at 1 µM (FRK)?
The inhibition at 1 µM was 16%.

And the inhibition at 1 µM (CDC2L5)?
Its inhibition at 1 µM is 1%.

What about the inhibition at 1 µM (IRAK3) of the same compound?
Its inhibition at 1 µM is 0%.

And the inhibition at 1 µM (GRK7)?
The inhibition at 1 µM was 17%.

And the inhibition at 1 µM (AKT3)?
Its inhibition at 1 µM is 0%.

What about the inhibition at 1 µM (INSRR) of the same compound?
The inhibition at 1 µM was 0%.

Which results are given for `O=c1cc(N2CCOCC2)nc2n(Cc3cccc(Cl)c3Cl)c(C3CC3)nn12` [UNC10225469A]?
inhibition at 1 µM (MAP3K1): 14%; inhibition at 1 µM (CAMK4): 5%; inhibition at 1 µM (DCAMKL1): 0%; inhibition at 1 µM (FRK): 0%; inhibition at 1 µM (CDC2L5): 0%; inhibition at 1 µM (IRAK3): 0%; inhibition at 1 µM (GRK7): 0%; inhibition at 1 µM (AKT3): 0%; inhibition at 1 µM (INSRR): 0%
